# Like-named read-outs stand apart in the source and are kept apart here.
# Assays:
# Format in all cases: in vivo
# [1] = system: winter barley (Hordeum vulgare); test: Test C postemergence; details: for Plant response rating, Barley: scale 0 to 100
# Summary of the method: (§1)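 Percent control is a visual rating (0 none, 100 complete) taken against untreated plants after 12 to 14 days of greenhouse growth. Applications were made preemergence to seeded pots and postemergence to plants at the 1- to 4-leaf stage, in a non-phytotoxic surfactant-containing solvent.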
# [2] = system: blackgrass (Alopecurus myosuroides); test: Test C postemergence; details: for Plant response rating, Blackgrass: scale 0 to 100
# Summary of the method: as §1
# [3] = system: downy brome (Bromus tectorum); test: Test C postemergence; details: for Plant response rating, Bromegrass, Downy: scale 0 to 100
# Summary of the method: as §1
# [4] = system: wheat (Triticum aestivum); test: Test C postemergence
# Summary of the method: as §1
# [5] = system: Italian ryegrass (Lolium multiflorum); test: Test C postemergence
# Summary of the method: as §1
# [6] = system: windgrass (Apera spica-venti); test: Test C postemergence
# Summary of the method: as §1
# [7] = system: wild oat (Avena fatua); test: Test C postemergence
# Summary of the method: as §1
# [8] = system: green foxtail (Setaria viridis); test: Test C postemergence
# Summary of the method: as §1
# [9] = system: canarygrass (Phalaris minor); test: Test C postemergence; details: for Plant response rating, Canarygrass: scale 0 to 100
# Summary of the method: as §1
# [10] = system: Surinam grass (Brachiaria decumbens); test: Test C pre/postemergence; details: Urochloa decumbens; for pest or weed control at 125 g/ha: 125 g ai/ha; for pest or weed control at 31 g/ha: 31 g ai/ha; for pest or weed control at 62 g/ha: 62 g ai/ha; for pest or weed control at 250 g/ha: 250 g ai/ha
# Summary of the method: as §1
# [11] = system: corn (Zea mays); test: Test C pre/postemergence; details: Zea mays; for Corn plant response rating (crop injury, 0 = no effect, 100 = complete kill) at 31 g/ha: 31 g ai/ha; for Corn plant response rating (crop injury, 0 = no effect, 100 = complete kill) at 62 g/ha: 62 g ai/ha; for Corn plant response rating (crop injury, 0 = no effect, 100 = complete kill) at 250 g/ha: 250 g ai/ha, scale 0 to 100
# Summary of the method: as §1
# [12] = system: goosegrass (Eleusine indica); test: Test C pre/postemergence; details: Eleusine indica; for pest or weed control at 31 g/ha: 31 g ai/ha; for pest or weed control at 62 g/ha: 62 g ai/ha; for pest or weed control at 125 g/ha: 125 g ai/ha; for pest or weed control at 250 g/ha: 250 g ai/ha
# Summary of the method: as §1
# [13] = post-emergence, Postemergence, scale 0 to 100 (0 no effect, 100 complete control), read-out: Surinam Grass plant response rating
# [14] = pre-emergence, Preemergence, scale 0 to 100, 0 no effect, 100 complete control, read-out: Plant response rating, Surinam Grass
# [15] = pre-emergence, Preemergence, scale 0 to 100, read-out: Plant response rating, Surinam Grass
# [16] = pre-emergence, Preemergence, scale 0 to 100, 0 no effect, 100 complete control, read-out: Plant response rating, Corn
# [17] = post-emergence, Postemergence, scale 0 to 100 (0 no effect, 100 complete control), read-out: Goosegrass plant response rating
# [18] = pre-emergence, Preemergence, scale 0 to 100, 0 no effect, 100 complete control, read-out: Plant response rating, Goosegrass
# [19] = pre-emergence, Preemergence, scale 0 to 100, read-out: Plant response rating, Goosegrass
structure (smiles),measurement,setting,value
"COC(=O)c1nc(C2CC2)nc(N)c1Br [Compound 2, methyl 6-amino-5-bromo-2-cyclopropyl-4-pyrimidinecarboxylate]","Plant response rating (scale of 0 to 100), Barley",[1]; 31 g ai/ha,0
same,"Plant response rating, Barley",[1]; 125 g ai/ha,60
same,"Plant response rating, Barley",[1]; 250 g ai/ha,60
same,plant injury at 62 g/ha,"[1]; Hordeum vulgare, post-emergence, 62 g ai/ha, scale 0 to 100 (0 no effect, 100 complete control), read-out: Barley plant response rating",35%
same,"Plant response rating (scale of 0 to 100), Blackgrass",[2]; 31 g ai/ha,60
same,"Plant response rating, Blackgrass",[2]; 125 g ai/ha,70
same,"Plant response rating, Blackgrass",[2]; 250 g ai/ha,75
same,pest or weed control at 62 g/ha,"[2]; Alopecurus myosuroides, post-emergence, 62 g ai/ha, scale 0 to 100 (0 no effect, 100 complete control), read-out: Blackgrass plant response rating",65%
same,"Plant response rating (scale of 0 to 100), Bromegrass, Downy",[3]; 31 g ai/ha,20
same,"Plant response rating, Bromegrass, Downy",[3]; 125 g ai/ha,45
same,"Plant response rating, Bromegrass, Downy",[3]; 250 g ai/ha,60
same,pest or weed control at 62 g/ha,"[3]; Bromus tectorum, post-emergence, 62 g ai/ha, scale 0 to 100 (0 no effect, 100 complete control), read-out: Bromegrass, Downy plant response rating",35%
same,"Plant response rating (scale of 0 to 100), Wheat",[4]; 31 g ai/ha,20
same,"Plant response rating, Wheat","[4]; 250 g ai/ha, scale 0 to 100",65
same,plant injury at 62 g/ha,"[4]; Triticum aestivum, post-emergence, 62 g ai/ha, scale 0 to 100 (0 no effect, 100 complete control), read-out: Wheat plant response rating",60%
same,plant injury at 125 g/ha,"[4]; Triticum aestivum, post-emergence, 125 g ai/ha, scale 0 to 100 (0 no effect, 100 complete control), read-out: Wheat plant response rating",65%
same,"Plant response rating (scale of 0 to 100), Ryegrass, Italian",[5]; 31 g ai/ha,35
same,"Plant response rating, Ryegrass, Italian","[5]; 250 g ai/ha, scale 0 to 100",60
same,pest or weed control at 62 g/ha,"[5]; Lolium multiflorum, post-emergence, 62 g ai/ha, scale 0 to 100 (0 no effect, 100 complete control), read-out: Ryegrass, Italian plant response rating",45%
same,pest or weed control at 125 g/ha,"[5]; Lolium multiflorum, post-emergence, 125 g ai/ha, scale 0 to 100 (0 no effect, 100 complete control), read-out: Ryegrass, Italian plant response rating",60%
same,"Plant response rating (scale of 0 to 100), Windgrass",[6]; 31 g ai/ha,65
same,"Plant response rating, Windgrass","[6]; 250 g ai/ha, scale 0 to 100",70
same,pest or weed control at 62 g/ha,"[6]; Apera spica-venti, post-emergence, 62 g ai/ha, scale 0 to 100 (0 no effect, 100 complete control), read-out: Windgrass plant response rating",65%
same,pest or weed control at 125 g/ha,"[6]; Apera spica-venti, post-emergence, 125 g ai/ha, scale 0 to 100 (0 no effect, 100 complete control), read-out: Windgrass plant response rating",70%
same,"Plant response rating (scale of 0 to 100), Oat, Wild",[7]; 31 g ai/ha,20
same,"Plant response rating, Oat, Wild","[7]; 250 g ai/ha, scale 0 to 100",60
same,pest or weed control at 62 g/ha,"[7]; Avena fatua, post-emergence, 62 g ai/ha, scale 0 to 100 (0 no effect, 100 complete control), read-out: Oat, Wild plant response rating",55%
same,pest or weed control at 125 g/ha,"[7]; Avena fatua, post-emergence, 125 g ai/ha, scale 0 to 100 (0 no effect, 100 complete control), read-out: Oat, Wild plant response rating",55%
same,"Plant response rating (scale of 0 to 100), Foxtail, Green",[8]; 31 g ai/ha,55
same,"Plant response rating, Foxtail, Green","[8]; 250 g ai/ha, scale 0 to 100",70
same,pest or weed control at 62 g/ha,"[8]; Setaria viridis, post-emergence, 62 g ai/ha, scale 0 to 100 (0 no effect, 100 complete control), read-out: Foxtail, Green plant response rating",55%
same,pest or weed control at 125 g/ha,"[8]; Setaria viridis, post-emergence, 125 g ai/ha, scale 0 to 100 (0 no effect, 100 complete control), read-out: Foxtail, Green plant response rating",65%
same,"Plant response rating (scale of 0 to 100), Canarygrass",[9]; 31 g ai/ha,30
same,"Plant response rating, Canarygrass",[9]; 125 g ai/ha,40
same,"Plant response rating, Canarygrass",[9]; 250 g ai/ha,40
same,pest or weed control at 62 g/ha,"[9]; Phalaris minor, post-emergence, 62 g ai/ha, scale 0 to 100 (0 no effect, 100 complete control), read-out: Canarygrass plant response rating",40%
same,pest or weed control at 125 g/ha,[10]; [13],65%
same,pest or weed control at 31 g/ha,"[10]; post-emergence, Postemergence, read-out: Plant response rating (scale of 0 to 100), Surinam Grass",0%
same,pest or weed control at 62 g/ha,[10]; [13],55%
same,pest or weed control at 250 g/ha,"[10]; post-emergence, Postemergence, scale 0 to 100, read-out: Plant response rating, Surinam Grass",70%
same,pest or weed control at 31 g/ha,[10]; [14],0%
same,pest or weed control at 62 g/ha,[10]; [14],0%
same,pest or weed control at 125 g/ha,[10]; [15],0%
same,pest or weed control at 250 g/ha,[10]; [15],0%
same,"Corn plant response rating (crop injury, 0 = no effect, 100 = complete kill) at 31 g/ha","[11]; post-emergence, Postemergence, read-out: Plant response rating (scale of 0 to 100), Corn",15%
same,"Corn plant response rating (crop injury, 0 = no effect, 100 = complete kill) at 62 g/ha","[11]; post-emergence, Postemergence, scale 0 to 100 (0 no effect, 100 complete control), read-out: Corn plant response rating",15%
same,"Corn plant response rating (crop injury, 0 = no effect, 100 = complete kill) at 125 g/ha","[11]; post-emergence, Postemergence, 125 g ai/ha, scale 0 to 100 (0 no effect, 100 complete control), read-out: Corn plant response rating",20%
same,"Corn plant response rating (crop injury, 0 = no effect, 100 = complete kill) at 250 g/ha","[11]; post-emergence, Postemergence",30%
same,"Corn plant response rating (crop injury, 0 = no effect, 100 = complete kill) at 31 g/ha",[11]; [16],0%
same,"Corn plant response rating (crop injury, 0 = no effect, 100 = complete kill) at 62 g/ha",[11]; [16],0%
same,"Corn plant response rating (crop injury, 0 = no effect, 100 = complete kill) at 250 g/ha","[11]; pre-emergence, Preemergence",0%
same,pest or weed control at 31 g/ha,"[12]; post-emergence, Postemergence, read-out: Plant response rating (scale of 0 to 100), Goosegrass",0%
same,pest or weed control at 62 g/ha,[12]; [17],0%
same,pest or weed control at 125 g/ha,[12]; [17],0%
same,pest or weed control at 250 g/ha,"[12]; post-emergence, Postemergence, scale 0 to 100, read-out: Plant response rating, Goosegrass",45%
same,pest or weed control at 31 g/ha,[12]; [18],0%
same,pest or weed control at 62 g/ha,[12]; [18],0%
same,pest or weed control at 125 g/ha,[12]; [19],0%
same,pest or weed control at 250 g/ha,[12]; [19],60%
